What was measured:
[1] = system: ventricular myocytes from FXN-KO and FXN-WT mice; assay: Oxygen consumption rate (OCR), XFp24 Cell Mito Stress Test (Agilent Seahorse); type: cell-based, mouse; settings: isolated ventricular myocytes
Method: To investigate how mitochondrial respiration was affected in FA, OCR was measured herein using XFp24 Cell Mito Stress Test (Catalog #B05423; Agilent Seahorse). One day prior to the experiment, XFp24 cell culture plates were coated with gelatin/fibronectin at 37° C. Ventricular myocytes were enzymatically isolated from FXN-KO and FXN-WT mice. We dissociated myocytes in DMEM medium (Seahorse Bioscience), supplemented with 1 mM pyruvate, 2 mM glutamine, and 10 mM D-glucose. We plated 2500 myocytes/well into 24 well seahorse plates for 10 min. OCR were measured using the Seahorse Bioscience XF24 Extracellular Flux Analyzer (Seahorse Bioscience). Measurements were taken as the cells were incubated sequentially under four conditions: 1) basal levels were measured with no additives; 2) oligomycin (1.5 μM) was added to inhibit ATP synthase and OXPHOS, showing glycolysis alone reversibly; 3) FCCP (1 μM), a mitochondrial uncoupler, was added to induce maximal respiration; and 4) Antimycin A (10 μM), a Complex III inhibitor, was added to obtain non-mitochondrial oxygen consumption background. The Seahorse software was used to extract the results and plotted them using GraphPad Prism. OCR was normalized to cell number per well.

[2] = system: left ventricular myocytes from FXN-WT and FXN-KO; settings: 10 μM FCCP added after 15 min of time-dependent recording over 22 min; FXN-WT and FXN-KO cardiomyocytes
Method: The mitochondrial membrane potential (ΔΨm) was measured using tetramethyl rhodamine methyl ester (TMRM) dye. Left ventricular myocytes from the FXN-WT and FXN-KO were plated in an eight-well confocal chamber (LAB-TEK, DK, Denmark; Catalog #155409,) for 20 minutes, and cells were incubated with TMRM (10 nmol/L; Invitrogen; Catalog #T668) for 20 minutes in Tyrode solution at 37° C. and washed two times with Tyrode solution. After incubation with the dye, live cells were imaged for 20 min in 2 min intervals on a confocal microscope (Olympus-IX) using a 63X-oil objective. […] Confocal settings were identical for FXN-WT and the FXN-KO myocytes.

Question: Which “OCR after injection of FCCP” value ([1]; FCCP 1 μM) does the source give for N#CC(C#N)=NNc1ccc(OC(F)(F)F)cc1 [FCCP, carbonyl cyanide 4-(trifluoromethoxy) phenylhydrazone] here?
Answer: increased OCR to maximal levels

Question: And the “ΔΨm (TMRM fluorescence) after addition of FCCP” value [2]?
Answer: decreased

Question: For CC[C@H]1/C=C/C=C/C[C@@H](C)[C@H](O)[C@@](C)(O)C(=O)[C@@H](C)[C@H](O)[C@@H](C)C(=O)[C@@H](C)[C@H](O)[C@@H](C)/C=C/C(=O)O[C@@H]2[C@H](C)[C@H](CC1)O[C@]1(CC[C@H](C)[C@H](C[C@@H](C)O)O1)[C@H]2C [Oligomycin, oligomycin], which “OCR after injection of oligomycin” value ([1]; oligomycin 1.5 μM) is on record?
Answer: decreased

Question: How did the “OCR after injection of antimycin A” value ([1]; Antimycin A 10 μM) turn out when Antimycin A was run?
Answer: reduced

From patent US20250057979A1, “CARDIAC CALCIUM HANDLING MACHINERY REMODELED IN FRIEDREICH'S ATAXIA” (University of South Florida, priority 2023, published 2025)
